In brackets after ≈: the same amount, converted by molar mass. Several values for one entry are separate records, joined by “and”; a condition that tells them apart may be missing. Equal values may be shown once. Read-outs that look alike come from different tables or passages of the source.
How the values were obtained:
Huh7B/Sindbis cells = test: Cytotoxicity by OD in Sindbis replicon cells; assay type: cell-based; details: concentrations tested
Procedure: (§1) Here we determine the effects of Picolinic acid and Fusaric Acid on Sindbis replicon in Huh7B/Sindbis cells. The Sindbis replicons were studied by qRTCPCR/iCycler. Normalization by OD and serial dilutions were done in the untreated cell line. The experimental design was as follows: cells were grown in 12 well cell culture plates; the compounds interaction was done for 24 hours; at extraction, cell confluence was 75%; and RNA was extracted using Qiagen Rneasy extraction kit.

HEL cells = test: Toxicity to HEL cells
VZV Ellen strain = test: VZV virus yield reduction assay in HEL-299 cells (real-time PCR); assay type: cell-based, Varicella-Zoster Virus; details: for Total VZV DNA copies (mean) / Total VZV DNA, % of control: 3 days
HCV replicon = HCV replicon (qRTCPCR/iCycler) in Ava.5 cell line; assay type: cell-based, Human Hepatitis C Virus; details: Hepatitis C virus, Ava5, 24 h, read-out: inhibition of HCV replicon
Procedure: (§2) Here we determine the effects of Picolinic acid and Fusaric Acid on HCV replicon cell lines. The HCV replicons (qRTCPCR/iCycler) were contained in the Ava.5 cell line tested. Normalization by OD and serial dilutions were done in the untreated cell line. The experimental design was as follows: cells were grown in 12 well cell culture plates; the compounds interaction was done for 24 hours; at extraction, cell confluence was 75%; and RNA was extracted using Qiagen Rneasy extraction kit.

Sindbis replicon = Sindbis replicon (qRTCPCR/iCycler) in Huh7B/Sindbis cells; assay type: cell-based, Sindbis virus; details: for inhibition of Sindbis replicon: at all concentrations tested
Procedure: as §1

Ava.5 cell line = test: Cytotoxicity by OD in HCV replicon cells; assay type: cell-based
Procedure: as §2

BVDV Trangie strain = test: BVDV virus yield reduction in MDBK cells (immunoperoxidase staining); assay type: cell-based, Bovine Viral Diarrhea Virus; details: 3 days
Procedure: BVDV Trangie strain, a well characterized non-cytopathic Australian isolate, was used in this study. The virus was cultured in MDBK cells (ATCC), and titred by immunoperoxidase staining.
80% confluent MDBK cells were infected with BVDV at a moi of 0.01 at 37° C. for 1 h. After viral inoculums was removed, Infected cells were washed with PBS and then incubated with culture medium containing PA at concentrations of 0, 10, 100, 250, 500, and 1000 ug/mL or FA at concentrations of 0, 1, 10, 30, 60, and 100 ug/mL at 37° C. for 3 days. The culture medium was then collected and stored at −70° C. The cells were harvested by one frozen/thawed cycle and centrifugation to pellet debris. The supernatant was collected and stored at −70° C.
PA of FA-treated cultures were 10-fold serially diluted, 50 uL of each dilution was added to 80% confluent MDBK cells in a 96-well plate, and incubated at 37° C. for 1 h. The innoculum was removed by washing with PBS once. The Infected cells were covered with 200 uL of 0.5% methylcellulose in culture medium and incubated at 37° C. for 2 days. After washing with PBS, the cells were fixed with 200 uL of 5% formalin in PBS for 10 min at room temperature. Subsequently, they were washed with 0.05% Tween −20/dH2O three times. Then, the cells were incubated with 50 uL mixture of three monoclonal antibodies against BVDV NS3 for 80 min at 37° C. in a humidified box. The cells were then washed as above and incubated with 50 uL of rabbit anti-mouse IgG Peroxidase-conjugate (DAKO) diluted 1:200 in 1% gelatin/PBS for 90 min at 37° C. in a humidified box. After final washes as described above, 200 uL of 3-amino-9-ethyl-carbazole was added to each well and incubated at room temperature for 30 min until the cells were stained.
The BVDV closely resembles HCV persistent Infection. After Infection with BVDV cultured MBDK were treated with different concentrations of PA or FA for 3 days. The antiviral effect was determined by virus yield reduction assays (i.e. staining using monoclonal antibodies against NS3, or titration of intracellular and extracellular virus by immunoperoxidase staining.

HepG2.2.15 cells = test: Toxicity to HepG2.2.15 cells (9-day treatment); assay type: cell-based
Procedure: Here we evaluate the antiviral efficacy of picolinic acid and fusaric acid against human hepatitis B virus (HBV). HepG2.2.15 cells, a cell line that was stably transfected with HBV genome was used to study the antiviral effects of PA and FA against HBV. HepG2.2.15 cells were cultured under standard conditions. HepG2.2.15 cells were seeded in a 96-well plate at 2×10^4 cells/well and grown for 24 hours. The medium was replaced with 100 uL of medium containing PA at increasing concentrations (0, 10, 100, 250, and 500 ug/mL). The concentrations of FU used were 0, 1, 10, 30, 60, and 100 ug/mL. The cells were incubated at 37° C. for 9 days. The control medium and the medium containing the antivirals were changed every 24 hours. At day 9, the culture medium containing the released HBV virions was collected, the cells washed with PBS, and lysed with lysis buffer. All samples were stored at −70° C. until analyzed.

CCCCc1ccc(C(=O)O)nc1 [FA, fusaric acid]
overt cytotoxicity by OD (Huh7B/Sindbis cells): No overt cytotoxicity | toxicity to HEL cells (HEL cells; 60 ug/mL): no significant toxicity | Total VZV DNA copies (mean) (VZV Ellen strain; FA 1 μg/ml): 753340 copies | Total VZV DNA, % of control (VZV Ellen strain; FA 1 μg/ml): 77.7 % of control | Total VZV DNA copies (mean) (VZV Ellen strain; FA 10 μg/ml): 685520 copies | Total VZV DNA, % of control (VZV Ellen strain; FA 10 μg/ml): 70.7 % of control | Total VZV DNA copies (mean) (VZV Ellen strain; FA 30 μg/ml): 103405 copies | Total VZV DNA, % of control (VZV Ellen strain; FA 30 μg/ml): 10.7 % of control | Total VZV DNA copies (mean) (VZV Ellen strain; FA 60 μg/ml): 66230 copies | Total VZV DNA, % of control (VZV Ellen strain; FA 60 μg/ml): 6.8 % of control | EC50 (VZV Ellen strain; Human alphaherpesvirus 3, HEL 299, read-out: EC50 against VZV replication, 50% reduction of total VZV DNA copies, HEL-299 cells): ~14 µg/mL (≈ 78.1 µM) | EC90 (VZV Ellen strain; Human alphaherpesvirus 3, HEL 299, read-out: EC90 against VZV replication, total VZV DNA copies, HEL-299 cells): ~41 µg/mL (≈ 229 µM) | inhibition at 100 µg/mL (HCV replicon): ~60% | Sindbis replicon % CTRL (Sindbis replicon; FA 5, 24 hours): 14.0 % CTRL | Sindbis replicon AVE (Sindbis replicon; FA 5, 24 hours): 22.7 | Sindbis replicon, single reading (Sindbis replicon; FA 5, 24 hours): 22.7 and 23.3 and 23.1 and 21.7 | Sindbis replicon % CTRL (Sindbis replicon; FA 25, 24 hours): 11.6 % CTRL | Sindbis replicon AVE (Sindbis replicon; FA 25, 24 hours): 22.9 | Sindbis replicon, single reading (Sindbis replicon; FA 25, 24 hours): 23.0 and 22.7 and 22.4 and 23.5 | Sindbis replicon % CTRL (Sindbis replicon; FA 50, 24 hours): 9.3 % CTRL | Sindbis replicon AVE (Sindbis replicon; FA 50, 24 hours): 23.3 | Sindbis replicon, single reading (Sindbis replicon; FA 50, 24 hours): 22.8 and 23.4 and 22.7 and 24.2 | Sindbis replicon % CTRL (Sindbis replicon; FA 100, 24 hours): 8.8 % CTRL | Sindbis replicon AVE (Sindbis replicon; FA 100, 24 hours): 23.5 | Sindbis replicon, single reading (Sindbis replicon; FA 100, 24 hours): 22.2 and 23.8 and 24.0 and 23.9 | inhibition of Sindbis replicon (Sindbis replicon): > 85% | overt cytotoxicity by OD (Ava.5 cell line; 100 ug/mL): no overt cytotoxicity | BVDV virus yield (BVDV Trangie strain; FA 1 μg/ml): 2.4 × 10^5 (pfu/ml) | BVDV virus yield, % of control (BVDV Trangie strain; FA 1 μg/ml): 80.0 % of control | BVDV virus yield (BVDV Trangie strain; FA 10 μg/ml): 1.8 × 10^5 (pfu/ml) | BVDV virus yield, % of control (BVDV Trangie strain; FA 10 μg/ml): 60.0 % of control | BVDV virus yield (BVDV Trangie strain; FA 30 μg/ml): 2.5 × 10^5 (pfu/ml) | BVDV virus yield, % of control (BVDV Trangie strain; FA 30 μg/ml): 83.3 % of control | BVDV virus yield (BVDV Trangie strain; FA 60 μg/ml): 1.5 × 10^5 (pfu/ml) | BVDV virus yield, % of control (BVDV Trangie strain; FA 60 μg/ml): 50.0 % of control | activity against BVDV (BVDV Trangie strain; MDBK cells): active | toxicity to HepG2.2.15 cells (HepG2.2.15 cells; 100 ug/ml): 100 ug/ml was toxic to HepG2.2.15 cells.

O=C(O)c1ccccn1 [PA, picolinic acid]
overt cytotoxicity by OD (Huh7B/Sindbis cells): no overt cytotoxicity | toxicity to HEL cells (HEL cells; 500 ug/mL): no significant toxicity | EC50 (VZV Ellen strain; Human alphaherpesvirus 3, 50% reduction of total VZV DNA copies, HEL-299 cells, read-out: EC50 against VZV replication): ~89 µg/mL (≈ 723 µM) | EC90 (VZV Ellen strain; Human alphaherpesvirus 3, total VZV DNA copies, HEL-299 cells, read-out: EC90 against VZV replication): ~505 µg/mL (≈ 4100 µM) | inhibition at 250 µg/mL (HCV replicon): ~60% | Sindbis replicon % CTRL (Sindbis replicon; PA 100, 24 hours): 6.5 % CTRL | Sindbis replicon AVE (Sindbis replicon; PA 100, 24 hours): 23.7 | Sindbis replicon, single reading (Sindbis replicon; PA 100, 24 hours): 24.1 and 23.7 and 23.5 and 23.6 | Sindbis replicon % CTRL (Sindbis replicon; PA 300, 24 hours): 11.3 % CTRL | Sindbis replicon AVE (Sindbis replicon; PA 300, 24 hours): 23.3 | Sindbis replicon, single reading (Sindbis replicon; PA 300, 24 hours): 24.3 and 23.7 and 21.6 | Sindbis replicon % CTRL (Sindbis replicon; PA 400, 24 hours): 6.7 % CTRL | Sindbis replicon AVE (Sindbis replicon; PA 400, 24 hours): 23.7 | Sindbis replicon, single reading (Sindbis replicon; PA 400, 24 hours): 24.0 and 23.5 and 23.2 and 24.3 | inhibition of Sindbis replicon (Sindbis replicon): greater than 90% | Sindbis replicon % CTRL (Sindbis replicon; column PA 200, 24 hours): 6.5 % CTRL | Sindbis replicon AVE (Sindbis replicon; column PA 200, 24 hours): 23.8 | Sindbis replicon, single reading (Sindbis replicon; column PA 200, 24 hours): 24.1 and 22.9 and 24.2 | overt cytotoxicity by OD (Ava.5 cell line; 250 ug/mL): no overt cytotoxicity | reduction of BVDV virus yield (BVDV Trangie strain; 250 ug/mL): 76% | EC50 (BVDV Trangie strain; Bovine viral diarrhea virus isolates and strains, 72 h, MDBK cells, read-out: EC50 against BVDV): 60 µg/mL (≈ 487 µM) | activity against BVDV (BVDV Trangie strain; MDBK cells): active | BVDV virus yield (BVDV Trangie strain; PA 10 μg/ml): 3.2 × 10^5 (pfu/ml) | BVDV virus yield, % of control (BVDV Trangie strain; PA 10 μg/ml): 78.0 % of control | BVDV virus yield (BVDV Trangie strain; PA 100 μg/ml): 2.5 × 10^5 (pfu/ml) | BVDV virus yield, % of control (BVDV Trangie strain; PA 100 μg/ml): 61.0 % of control | BVDV virus yield (BVDV Trangie strain; PA 250 μg/ml): 1.0 × 10^5 (pfu/ml) | BVDV virus yield, % of control (BVDV Trangie strain; PA 250 μg/ml): 24.4 % of control | BVDV virus yield (BVDV Trangie strain; PA 500 μg/ml): 0.35 × 10^5 (pfu/ml) | BVDV virus yield, % of control (BVDV Trangie strain; PA 500 μg/ml): 8.5 % of control | toxicity to HepG2.2.15 cells (HepG2.2.15 cells; 500 ug/ml): 500 ug/ml was slightly toxic to HepG2.2.15 cells.

Source: patent US20100015174A1, “METHOD TO CONTROL DENGUE VIRUSES IN HUMANS BY PICOLINIC ACID AND DERIVATIVES THEREOF” (priority 2008, published 2010)
